Experimental data taken from patent US20230255957A1, “VIRAL ENTRY INHIBITORS AND RNA POLYMERASE INHIBITORS” (SELVA THERAPEUTICS, INC., priority 2020, published 2023).
pEC50: −log10 of the molar value. Where “and” joins values, the source holds several entries; their conditions need not be identical. Equal values may be shown once. Read-outs that look alike come from different tables or passages of the source.

Columns and labels:
SARS-CoV-2 [1] = assay: In vitro cytopathogenic effect / EC100 assay, K11777 and Remdesivir, Vero E6; assay type: cell-based; settings: for EC100: compound alone
Description: (§1) Controlled in vitro assays were conducted to measure the concentrations of K11777 and Remdesivir in combination required to induce 100% maximal response (EC100) for SARS-CoV-2 activity in the Vero E6 cell line. The concentrations of the combination are also compared to the concentrations required for each compound to achieve the same result individually.
The designation “ND” indicates no cytopathogenic effect was detected. The designation “C” indicates the composition itself caused a cytotoxic effect. The designation “n/a” means no observation was made.

SARS-CoV-2 [2] = assay: In vitro cytopathogenic effect / EC100 assay, K11777 and EIDD-1931, Vero E6; assay type: cell-based; settings: for EC100: compound alone
Description: as §1, with “EIDD-1931” for “Remdesivir”
Table 4 is split into two portions (a) and (b) above to accommodate page size. The first columns of 4(a) and (b) show concentration values from 10 μM (micromolar) to 0.078 μM. […] The designation “ND” indicates no cytopathogenic effect was detected.

[3] = Cytotoxicity to host cells, Vero E6; assay type: cell-based; settings: African green monkey
Description: (§2) Controlled […] assays were conducted to measure the half-maximal effective concentration (EC50) of K777 required to prevent entry of SARS-CoV-2 in various cell lines, as well as cytotoxicity to the host cells (CC50).

SARS-CoV-2 [4] = assay: Follow up pilot study, viral load in pharyngeal and nasal swabs and BAL; assay type: in vivo, African Green Monkey
[5] = Cytotoxicity to host cells, A549/ACE2; assay type: cell-based; settings: human
Description: as §2

SARS-CoV-2 [6] = assay: Follow up pilot study, non-human primate model, organ assessment at autopsy; assay type: in vivo, African Green Monkey; settings: for Lung weight % of weight / Lung weight Left lobe / Lung weight Right lobe / Lung weight Total: 7 days, autopsy day 7
Description: Following the initial pilot study, a follow up pilot study was conducted to further explore the potential for efficacy of K777 against SARS-CoV-2 in a non-human primate model (African Green Monkey). The study included eight subjects (N=8), with two controls and six receiving K777. Unlike in the initial pilot, in this follow-up pilot no subjects were pretreated with K777. Each subject was inoculated with SARS-CoV-2 for 8 hours. Each subject was then treated with K777 for 7 days (33 mg/kg/day (n=3) or 100 mg/kg/day (n=3)) or placebo (n=2). Each subject was then sacrificed, and an autopsy was performed at day 7. During the study, measurements of viral load were determined from serial nasal and pharyngeal swabs as well as brochoalveolar fluid (BAL) samples. During autopsy, organ assessment was performed. The results are shown in Tables 2.2, 2.3, 2.4 and 2.5 below and depicted in FIGS. 5 to 12. FIGS. 7 to 10 depict histological slides of lung tissue taken from the subjects in the follow up pilot study after completion of the study. FIG. 6 depicts histological slides of lung tissue taken from a normal human lung and from a human lung with diffuse alveolar damage (DAD) for comparison. In FIGS. 7 to 10, NB numbers are subject identifiers. In FIGS. 8 to 10, “RL” means right lung and “LL” means left lung. FIG. 11 depicts the histopathology shown in FIGS. 8 to 10 in one chart for side-by-side comparison. FIG. 12 depicts viral load for each group on day 1 and day 7 of the follow up pilot study.

SARS-CoV-2 [7] = assay: microbe, parasite or virus in culture; assay type: cell-based; settings: read-out: Inhibition of Viral Infectivity EC50
SARS-CoV-2 [8] = assay: Initial pilot study, non-human primate model, organ assessment at autopsy; assay type: in vivo, African Green Monkey; settings: 100 mg/kg/day, 7 days, pretreated; autopsy day 7
Description: An initial pilot study was conducted to determine the potential for efficacy of K777 against SARS-CoV-2 in a non-human primate model (African Green Monkey). The study included six subjects (N=6), with two controls receiving vehicle only and four receiving K777. Each subject was pretreated with K777 (100 mg/kg) or placebo (control). Each subject was then inoculated with SARS-CoV-2 at […] (3-4 hours after first dose of K777). Each subject was then treated with K777 for 6 additional days (7 days total) (100 mg/kg/day). Each subject was then sacrificed and an autopsy was performed at day 7. During the study, daily measurement of viral titers was performed via BAL, nasal swabs, and pharyngeal swabs. During autopsy, organ assessment was performed. The results are shown in Table 2.1 below and depicted in FIG. 4.

[9] = Cytotoxicity to host cells, Calu-3; assay type: cell-based; settings: human, Calu-3 cells
Description: as §2

[10] = Cytotoxicity to host cells, HeLa/ACE2; assay type: cell-based; settings: human
Description: as §2

[11] = conc 0.1 μM (of K11777 in combinations)
[12] = conc 0.3 μM (of K11777 in combinations)
[13] = conc 1 μM (of K11777 in combinations)
[14] = conc 0.078 uM (of K777 in combinations), Vero E6
[15] = conc 0.3125 uM (of K777 in combinations), Vero E6
[16] = African Green Monkey, SARS-CoV-2

CCC(CC)COC(=O)[C@H](C)N[P@](=O)(OC[C@H]1O[C@@](C#N)(c2ccc3c(N)ncnn23)[C@H](O)[C@@H]1O)Oc1ccccc1 [Remdesivir]
EC100 (SARS-CoV-2 [1]): 3 µM
cytopathogenic effect (SARS-CoV-2 [1]; conc 0.01 μM (of K11777 in combinations)): CPE
cytopathogenic effect (SARS-CoV-2 [1]; conc 0.03 μM (of K11777 in combinations)): CPE
cytopathogenic effect (SARS-CoV-2 [1]; [11]): CPE
cytopathogenic effect (SARS-CoV-2 [1]; [12]): CPE
cytopathogenic effect (SARS-CoV-2 [1]; [13]): CPE
cytopathogenic effect (SARS-CoV-2 [1]; conc 3 μM (of K11777 in combinations)): CPE

O=c1[nH]/c(=N\O)ccn1[C@@H]1O[C@H](CO)[C@@H](O)[C@H]1O [EIDD-1931, Beta-d-N4-hydroxycytidine, reference compound]
cytopathogenic effect (SARS-CoV-2 [2]): CPE
EC100 (SARS-CoV-2 [2]; Vero E6): 5 µM
cytopathogenic effect (SARS-CoV-2 [2]; [14]): CPE
cytopathogenic effect (SARS-CoV-2 [2]; [15]): CPE
cytopathogenic effect (SARS-CoV-2 [2]; conc 2.5 uM (of K777 in combinations), Vero E6): CPE

CN1CCN(C(=O)N[C@@H](Cc2ccccc2)C(=O)N[C@H](/C=C/S(=O)(=O)c2ccccc2)CCc2ccccc2)CC1 [K777]
CC50 [3]: > 10 µM
EC100 (SARS-CoV-2 [1]): 1 µM
cytopathogenic effect (SARS-CoV-2 [1]; [11]): CPE
cytopathogenic effect (SARS-CoV-2 [1]; [12]): CPE
cytopathogenic effect (SARS-CoV-2 [1]; [13]): CPE
Viral Load -- Subgenomic E (SARS-CoV-2 [4]; 30 mg/kg/day, BAL, d5): 3.69E+04 Eq. VC/mL
Viral Load -- Subgenomic E (SARS-CoV-2 [4]; 30 mg/kg/day, Nasal, d3): 1.62E+06 Eq. VC/mL
Viral Load -- Subgenomic E (SARS-CoV-2 [4]; 30 mg/kg/day, Nasal, d5): 2.07E+04 Eq. VC/mL and 1.91E+04 Eq. VC/mL
Viral Load -- Genomic N1 (SARS-CoV-2 [4]; 30 mg/kg/day, Phary, d3): 1.11E+09 Eq. VC/mL and 1.87E+09 Eq. VC/mL
Viral Load -- Genomic N1 (SARS-CoV-2 [4]; 100 mg/kg/day, BAL, d1): 3.38E+08 Eq. VC/mL and 2.69E+08 Eq. VC/mL
Viral Load -- Subgenomic E (SARS-CoV-2 [4]; 100 mg/kg/day, BAL, d3): 2.45E+06 Eq. VC/mL and 1.58E+06 Eq. VC/mL
Viral Load -- Subgenomic N (SARS-CoV-2 [4]; 100 mg/kg/day, BAL, d3): 1.31E+07 Eq. VC/mL and 7.93E+06 Eq. VC/mL
Viral Load -- Subgenomic N (SARS-CoV-2 [4]; 100 mg/kg/day, BAL, d7): 1.40E+05 Eq. VC/mL
Viral Load -- Subgenomic E (SARS-CoV-2 [4]; 100 mg/kg/day, Nasal, d3): 7.94E+07 Eq. VC/mL
Viral Load -- Subgenomic N (SARS-CoV-2 [4]; 100 mg/kg/day, Nasal, d7): 4.19E+06 Eq. VC/mL
Viral Load -- Subgenomic E (SARS-CoV-2 [4]; 100 mg/kg/day, Phary, d3): 3.34E+07 Eq. VC/mL and 2.04E+07 Eq. VC/mL and 3.29E+07 Eq. VC/mL
Viral Load -- Subgenomic N (SARS-CoV-2 [4]; 100 mg/kg/day, Phary, d7): 3.64E+07 Eq. VC/mL and 5.51E+07 Eq. VC/mL
viral load as compared to the vehicle (SARS-CoV-2 [4]; [16]): significantly reduced viral load as compared to the vehicle
CC50 [5]: > 10 µM
EC100 (SARS-CoV-2 [2]; Vero E6): 2.5 µM
cytopathogenic effect (SARS-CoV-2 [2]; [14]): CPE
cytopathogenic effect (SARS-CoV-2 [2]; conc 0.156 uM (of K777 in combinations), Vero E6): CPE
cytopathogenic effect (SARS-CoV-2 [2]; [15]): CPE
cytopathogenic effect (SARS-CoV-2 [2]; conc 0.625 uM (of K777 in combinations), Vero E6): CPE
cytopathogenic effect (SARS-CoV-2 [2]; conc 1.25 uM (of K777 in combinations), Vero E6): CPE
Lung weight % of weight (SARS-CoV-2 [6]; 33 mg/kg/day): 0.66% and 0.95% and 0.54%
Lung weight Left lobe (SARS-CoV-2 [6]; 33 mg/kg/day): 24 g and 28 g and 17 g
Lung weight Right lobe (SARS-CoV-2 [6]; 33 mg/kg/day): 20 g and 28 g and 24 g
Lung weight Total (SARS-CoV-2 [6]; 33 mg/kg/day): 44 g and 56 g and 41 g
Lung weight % of weight (SARS-CoV-2 [6]; 100 mg/kg/day): 0.50% and 0.46% and 0.56%
Lung weight Left lobe (SARS-CoV-2 [6]; 100 mg/kg/day): 14 g and 15 g
Lung weight Right lobe (SARS-CoV-2 [6]; 100 mg/kg/day): 18 g and 19 g
Lung weight Total (SARS-CoV-2 [6]; 100 mg/kg/day): 32 g and 33 g and 34 g
lung damage (histopathology) (SARS-CoV-2 [6]; [16]): protected the lung against diffuse alveolar damage (DAD) and ARDS-like lung damage
lung to body weight ratios (SARS-CoV-2 [6]; both pilot studies): able to maintain normal lung to body weight ratios
pEC50 (SARS-CoV-2 [7]; Severe acute respiratory syndrome coronavirus 2, A549-ACE2, A549/ACE2): > 7.10
pEC50 (SARS-CoV-2 [7]; Severe acute respiratory syndrome coronavirus 2, Calu-3, Calu-3): 5.30 to 5.52
pEC50 (SARS-CoV-2 [7]; Severe acute respiratory syndrome coronavirus 2, HeLa-ACE2, HeLa/ACE2): 8.40
Lung weight % of weight (SARS-CoV-2 [8]): 0.52% and 0.49% and 0.51% and 0.58%
Lung weight Left lobe (SARS-CoV-2 [8]): 13.06 g and 12.79 g and 19.06 g and 21.72 g
Lung weight Right lobe (SARS-CoV-2 [8]): 17.22 g and 16.99 g and 14.43 g and 16.84 g
Lung weight Total (SARS-CoV-2 [8]): 30.28 g and 29.78 g and 33.49 g and 38.56 g
Lymph enlargement (SARS-CoV-2 [8]): 2 fold and 2.5 fold
CC50 [9]: > 10 µM
CC50 [10]: > 10 µM
